Where two headings read alike, the source gives them in different places.
How the values were obtained:
[1] = tested on: AKT phosphorylation (Ser 473); assay: FCS induced AKT phosphorylation (Ser473) in IPF primary human lung fibroblasts, MSD assay (Example 1); assay type: cell-based; details: Fibroblast, 0.5 h, fibroblasts from n=4 IPF lungs, 10% FCS, 30 minutes, geometric mean (95% CI 0.83-8 nM), read-out: IC50 for inhibition of FCS induced AKT phosphorylation
Experimental: Phosphorylation of AKT is widely accepted as an indication of PI3-kinase activity, and is utilised here to obtain an IC50 for the effect of 2,4-difluoro-N-{2-(methyloxy)-5-[4-(4-pyridazinyl)-6-quinolinyl]-3-pyridinyl}benzenesulfonamide on primary human lung fibroblasts isolated from the IPF patients, in addition to macrophages isolated from IPF bronchoalveolar lavage (BALF).
Fibroblasts are seeded in 96 well plates at a density of 10,000 cells per well. Following 24 hours of serum starvation, fibroblasts are pre-incubated for 15 minutes in serum free buffer containing a range of concentrations of 2,4-difluoro-N-{2-(methyloxy)-5-[4-(4-pyridazinyl)-6-quinolinyl]-3-pyridinyl}benzenesulfonamide (50 μl volumes per well, comprising 1:10 dilutions of inhibitor ranging from [3×10^−12M] to [3×10^−7M] in serum free DMEM). Fibroblasts are stimulated by the addition of foetal calf serum (FCS) to a final volume of 10%. 30 minutes after stimulation, supernatants are rapidly decanted, and the cell plate placed on ice. 35 μl of 1× Complete Lysis buffer is added to each well and incubated for 10 minutes at 4° C., and stored at −80° C. prior to further analysis. […] The assay protocol is completed as per manufacturer's instructions and plates analysed on an MSD SECTOR Imager. Data are read out as the % of total AKT phosphorylated at position Ser473.

[2] = tested on: primary human lung fibroblasts; assay: 72 hour cell population growth, MTS assay (CellTiter 96 AQueous); assay type: cell-based; details: for IC50: Homo sapiens, Fibroblast, 72 h, 10% FBS, read-out: mean pIC50, inhibition of cell growth (MTS) (converted)
Experimental: Primary human fibroblasts were isolated by explant culture from non-IPF lung tissue, obtained post mortem following sudden trauma, and IPF lung tissue obtained from the lungs of IPF patients which were removed for transplantation or biopsy. Explants were cultured in DMEM containing high glucose and sodium pyruvate (PAA laboratories, catalogue #E15-011) with penicillin/streptomycin (Sigma #P4333), amphotericin B (Sigma #A2942), L-glutamine (Gibco #25030) and 20% FBS (foetal bovine serum, Lonza, catalogue #14-801F, Lot #1SB003) at 37° C., 100% humidity, 10% CO2. Cells were designated non-IPF (UCL marked 0110 and 0610) and IPF (UCL marked 0207, 0208, 0308, 0507 and 0508) based on medical diagnosis.
Human lung primary fibroblast cell lines were cultured in DMEM containing high glucose and sodium pyruvate supplemented with L-glutamine, penicillin/streptomycin and 10% FBS (complete DMEM) at 37° C., 100% humidity, 10% CO2. Cells were split into T175 flasks (NUNC #159910) 2 to 3 days prior to assay set-up at a density which yields approximately 70-80% confluence at time of harvest for assay. […]
For reading 20 μL of CellTiter 96™ AQueous non-radioactive cell growth assay (MTS) reagent (Promega #G5430) was added to all wells. Plates were incubated for a further 2 hours at 37° C., 100% humidity, 10% CO2 then read at 490 nm on a Versamax microplate reader using Softmax Pro v5 software. Readings were corrected for FBS discoloration as per manufacturer's instructions, by the subtraction of values from media control (no cell) wells.
The maximum fitted (upper asymptote) value for each experiment and used as the 100% reference response. The MTS signal (with media background values subtracted) in the presence of increasing log Molar concentrations of 2,4-difluoro-N-{2-(methyloxy)-5-[4-(4-pyridazinyl)-6-quinolinyl]-3-pyridinyl}benzenesulfonamide were expressed as a % of the maximum asymptote. […]
In a subset of experiments, where cell growth was measured in parallel with activation of caspase 3/7, T0 readings were taken when serum free medium was changed to 10% FBS and compound added. […]

In the case of `COc1ncc(-c2ccc3nccc(-c4ccnnc4)c3c2)cc1NS(=O)(=O)c1ccc(F)cc1F` [2,4-difluoro-N-{2-(methyloxy)-5-[4-(4-pyridazinyl)-6-quinolinyl]-3-pyridinyl}benzenesulfonamide], the IC50 [1] is reported as 2.58 nM, the IC50 ([2]; IPF fibroblasts, n=5 cell lines (+/-0.1 SEM)) is reported as 31.6 nM and the IC50 ([2]; primary human non-IPF fibroblasts, n=2 lines (±0.2 SEM)) is reported as 20 nM. The “concentration at which MTS signal with 10% FBS appeared lower than no FBS controls (reduction in cell number, potentially indicative of cell death)” value ([2]; fibroblasts) was greater than 30 nM.
